Here are results for 1 compound from patent US20100255086A1, “Method for oral mucosal absorption of acetyl salycylic acid” (priority 2009, published 2010).

For data set [1] the following is noted: cited from earlier work.
The conditions of data set [2]: long-term treatment; cited from earlier work.
For data set [3] the following is noted: cited from earlier work. The source holds these as a separate data set.

Turning to `CC(=O)Oc1ccccc1C(=O)O` [aspirin, acetyl salicylic acid], the Buccal absorption (normal buccal pH, no buffer added) is recorded as 5%. The “absorbed (buccal)” value (pH of 2.5, buffer solution added) came out at 70%. For the same compound, the “acetyl salicylic acid reaching the stomach inactivated through deacetylation” value in data set [1] was “At least thirty two”. The severe gastrointestinal complication result in data set [2] was “up to 30%”. The solubility in water result in data set [3] is reported as “does not dissolve in water”.
